This is an account of results in patent publication US12590096B2, “Imidazo[2,1-f][1,2,4]triazin-4-amine as TLR8 agonists” (BeOne Medicines | GmbH, priority 2019, dated 2026).

Each structure is given as a SMILES string. Like-named read-outs stand apart in the source and are kept apart here. Some results are limits rather than exact numbers.

The target of test [1] is T1, human TLR 8 protein in HEK-blue hTLR 8 tool cell line (Homo sapiens, UniProt Q9NR97).
T1 construct: expressed in transfected cells; host or cells: HEK293 (HEK-Blue hTLR8)
T1 sequence (Q9NR97 27-1041): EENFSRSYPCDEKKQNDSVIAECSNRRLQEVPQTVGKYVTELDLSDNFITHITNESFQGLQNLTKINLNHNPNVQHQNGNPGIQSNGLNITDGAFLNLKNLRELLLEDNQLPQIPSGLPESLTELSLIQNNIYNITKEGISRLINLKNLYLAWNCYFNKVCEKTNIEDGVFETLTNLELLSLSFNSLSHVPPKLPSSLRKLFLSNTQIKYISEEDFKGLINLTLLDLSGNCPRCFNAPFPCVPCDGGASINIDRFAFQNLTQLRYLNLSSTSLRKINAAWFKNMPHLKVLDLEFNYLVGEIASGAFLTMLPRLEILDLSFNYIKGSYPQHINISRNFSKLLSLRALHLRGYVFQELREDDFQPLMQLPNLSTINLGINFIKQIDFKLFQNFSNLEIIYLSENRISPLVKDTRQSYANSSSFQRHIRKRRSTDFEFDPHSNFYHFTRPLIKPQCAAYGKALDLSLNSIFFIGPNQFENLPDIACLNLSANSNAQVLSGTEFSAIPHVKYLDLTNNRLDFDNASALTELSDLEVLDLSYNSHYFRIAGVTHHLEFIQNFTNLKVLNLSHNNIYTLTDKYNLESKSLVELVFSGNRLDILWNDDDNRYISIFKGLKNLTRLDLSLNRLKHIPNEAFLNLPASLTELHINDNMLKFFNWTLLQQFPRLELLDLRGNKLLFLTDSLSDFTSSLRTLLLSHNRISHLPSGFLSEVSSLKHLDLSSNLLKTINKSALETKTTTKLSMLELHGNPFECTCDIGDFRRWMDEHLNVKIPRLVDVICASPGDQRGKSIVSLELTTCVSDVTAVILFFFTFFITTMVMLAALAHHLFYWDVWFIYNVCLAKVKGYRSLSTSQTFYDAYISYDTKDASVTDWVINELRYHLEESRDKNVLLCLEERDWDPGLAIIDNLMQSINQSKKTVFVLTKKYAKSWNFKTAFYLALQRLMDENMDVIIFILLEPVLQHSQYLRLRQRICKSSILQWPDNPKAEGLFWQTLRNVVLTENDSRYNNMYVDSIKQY
Kind of test: TLR8 stimulation determined by HEK-Blue Detection (NF-κB/SEAP reporter). The format is cell-based. Particulars: HEK-Blue hTLR8 cells, 16 h incubation, relative to maximum activation by Resiquimod or motolimod; read-out: EC50 (nmol). The source says: TLR8 Stimulation Determined by HEK-Blue Detection
This assay was designed to study the stimulation of human TLR 8 protein in HEK-blue hTLR 8 tool cell line by monitoring the activation of NF-κB. HEK-blue hTLR8 cells were obtained by co-transfection of hTLR8 gene and optimized secretory embryonic alkaline phosphatase (SEAP) reporter gene into HEK293 cells. SEAP reporter gene was put under the control of […] minimal promoter fused with five NF-κB and AP-1-binding sites. NF-κB and AP-1 were activated by stimulation with TLR 8 ligand, thus inducing the expression of SEAP. The level of SEAP can be easily determined by HEK-Blue Detection (a cell culture medium that allows real-time detection of SEAP). HEK-Blue Detection comprises all nutrients needed for cell growth and specific SEAP color substrates. The hydrolysis of substrate by SEAP produces purple/blue color which can be measured by spectrophotometer.
When growing to 50-80% confluence, HEK-Blue hTLR7/8 cells were plated into 96-well plates (costar 3599) at a density of 40,000 cells/well. Then, the compound serially diluted at 10 points with a final concentration ranging from 1 nM to 10 μm in 0.1% DMSO/HEK-Blue Detection was added. The plates were then incubated in 5% CO2 at 37° C. for 16 h. Optical density at 620-655 nm was read on BMG PHERAstar FSX instrument. The EC50 of each compound was determined by calculating the maximum activation percentage identified using Resiquimod or motolimod.
The EC50 of the tested compound of the present invention is as follows.

For test [2], the system named is PBMC (peripheral blood monocyte). Kind of test: PBMC determination: cytokines in culture supernatant measured by HTRF. To be noted: human PBMC, 24 h. The format is cell-based. The procedure:
Determination of PBMC (Peripheral Blood Monocyte) Cell Preparation, Separation and Culture
Human whole blood was collected from healthy volunteers using BD Vacutainer® Lithium Heparin Tubes. PBMCs were prepared using Ficoll separation medium (GE Healthcare) by SopMate™ (STEMCELL). The cell survival rate was over 85% as monitored by Countstar. PBMCs were cultured in RPMI 1640 (Gibco) 10% (v/v) FBS (Gibco), 1×MEM NEAA (Gibco), 1× GlutaMAX (Gibco), 1 mM sodium pyruvate (Gibco), 50 uM 2-mercaptoethanol (sigma), and 100 U/ml penicillin-streptomycin (Thermo fisher Scientific).
PBMCs were plated into 96-well plates (costar 3894) with a density of 2×10^5 cells/well. Then, TLR7/8 compound was added, and serial dilution was carried out at ten points. The final concentration in 0.1% DMSO/RPMI 1640 ranged from 1 nM to 10 μM. Then, the plates were incubated in 5% CO2 at 37° C. for 24 h.
HTRF (Homogeneous Time-Resolved Fluorescence)
After the specified time point, according to the manufacturers recommendations, the cytokines in the cell culture supernatant were measured by Human IL6 kit (cisbio) and Human TNF alpha kit (cisbio). The EC50 of each compound was determined by calculating the maximum activation percentage identified using Resiquimod or Motolimod.

Setting [3] is: Human IL6 kit (HTRF), read-out: IL6 (EC50).
Setting [4] is: Human TNF alpha kit (HTRF), read-out: TNF-alpha (EC50).

One may read the EC50 as the concentration at which the effect is half-maximal. For the compound `CCC[C@H](C)Oc1nc(N)c2ncc(CC3CCNC(C)C3)n2n1` (stereo partly drawn) [Compound B27, 7-((2-methylpiperidin-4-yl)methyl)-2-(((S)-pent-2-yl)oxy)imidazo[2,1-f][1,2,4]triazin-4-amine], the concentration for a half-maximal effect (EC50) in test [1] is 20 nM; in test [2] (setting [3]) it was 228 nM; in test [2] (setting [4]) it was 326 nM.
In the same order, the values of `CCC[C@@H](C)Oc1nc(N)c2ncc(CC3CCNCC3)n2n1` [Compound B7, (R)-2-(pent-2-yloxy)-7-(piperidin-4-ylmethyl)imidazo[2,1-f][1,2,4]triazin-4-amine] are 1290 nM, more than 10000 nM and more than 10000 nM.
In the same order, the values of `CCC[C@H](C)Oc1nc(N)c2ncc(CC3CCN(CCN)CC3)n2n1` [Compound B38, (S)-7-((1-(2-aminomethyl)piperidin-4-yl)methyl)-2-(pent-2-yloxy)imidazo[2,1-f][1,2,4]triazin-4-amine] are 47 nM, 28 nM and 39 nM.
In the same order, the values of `CCC[C@H](C)Oc1nc(N)c2ncc(C[C@H]3C[C@@H](N)C3)n2n1` [Compound B30, 7-(((1s,3S)-3-aminocyclobutyl)methyl)-2-(((S)-pent-2-yl)oxy)imidazo[2,1-f][1,2,4]triazin-4-amine] are 26 nM, 85 nM and 153 nM.
Turning to `CCC[C@H](C)Oc1nc(N)c2ncc(CC3CCNCC3)n2n1` [Compound B6, (S)-2-(pent-2-yloxy)-7-(piperidin-4-ylmethyl)imidazo[2,1-f][1,2,4]triazin-4-amine], the half-maximal effective concentration (EC50) in test [1] is 8.2 nM; in test [2] (setting [3]), 162 nM; in test [2] (setting [4]), 115 nM.
In the same order, the values of `CCC[C@H](C)Oc1nc(N)c2ncc(CC3CCCNCC3)n2n1` (stereo partly drawn) [Compound B25, 7-(azepan-4-ylmethyl)-2-(((S)-pent-2-yl)oxy)imidazo[2,1-f][1,2,4]triazin-4-amine] are 63 nM, 236 nM and 456 nM.
In the same order, the values of `CCC[C@H](C)Oc1nc(N)c2ncc(CC3CCN(CCNC)CC3)n2n1` [Compound B12, (S)-7-((1-(2-(methylamino)ethyl)piperidin-4-yl)methyl)-2-(pent-2-yloxy)imidazo[2,1-f][1,2,4]triazin-4-amine] are 19 nM, 14 nM and 10 nM.
